{"source": "patent US6691638B2", "about": "“Methods for gamete production in birds” (North Carolina State University, priority 2000, dated 2004)", "origin": "cited, not measured here", "key": {"gonadal germ cells": {"tested_on": "gonadal germ cells", "details": "cited from earlier work"}, "[1]": {"details": "in vivo; cited from earlier work"}, "PGCs [2]": {"tested_on": "PGCs", "details": "cited from earlier work"}, "PGCs [3]": {"tested_on": "PGCs", "details": "administration in rats; cited from earlier work"}, "chick embryos": {"tested_on": "chick embryos", "details": "injection into the yolk sac; cited from earlier work"}, "quail eggs": {"tested_on": "quail eggs", "details": "albumen suspension of BU; cited from earlier work"}, "germ cells": {"tested_on": "germ cells", "details": "100 μg BU in sesame oil; cited from earlier work"}, "[4]": {"details": "forms a suspension; cited from earlier work"}, "[5]": {"details": "50 μg BU suspended in sesame oil, 6 day-old chick embryos"}, "[6]": {"details": "after injection of germinal crescent cells into BU-treated embryos"}}}
{"smiles": "CS(=O)(=O)OCCCCOS(C)(=O)=O", "note": "[BU, 1,4-butanediol dimethane sulfonate]", "values": [{"measurement": "Increase of the rate of germline chimerism", "setting": "gonadal germ cells; compared to non-BU treated embryos, estimated", "value": 3.5, "unit": "fold"}, {"measurement": "Effect on gonadal germ cells in chick embryos", "setting": "gonadal germ cells; injection of 25, 50 and 250 μg BU", "value": "significantly reduced"}, {"measurement": "Half-life", "setting": "[1]", "value": "approximately 10 hours"}, {"measurement": "Reduction of PGCs in the left gonad", "setting": "PGCs [2]; [5]", "value": 75, "unit": "%"}, {"measurement": "Reduction of PGCs in the right gonad", "setting": "PGCs [2]; [5]", "value": 78, "unit": "%"}, {"measurement": "PGC numbers, left gonad, % of controls", "setting": "PGCs [2]; [6]", "value": "72 % of controls"}, {"measurement": "PGC numbers, right gonad, % of controls", "setting": "PGCs [2]; [6]", "value": "115 % of controls"}, {"measurement": "Effect on development of PGCs", "setting": "PGCs [3]", "value": "markedly impair"}, {"measurement": "Teratogenic effect", "setting": "chick embryos", "value": "multiple malformations"}, {"measurement": "Effect on hatchability", "setting": "quail eggs", "value": "significant declines in hatchability"}, {"measurement": "Sterility index", "setting": "germ cells", "value": "≥ 95", "unit": "%"}, {"measurement": "Solubility in aqueous solutions", "setting": "[4]", "value": "relatively insoluble"}]}
